Measurements taken from paper PMC3077712 (2010).

Tests used:
Cyclooxygenase-2 (COX-2) [1] = target: T1, Cyclooxygenase-2 (COX-2) (Ovis aries, UniProt P79208); test: purified enzyme turnover, RP-HPLC-MS/MS; type: biochemical
T1 sequence (P79208 17-603): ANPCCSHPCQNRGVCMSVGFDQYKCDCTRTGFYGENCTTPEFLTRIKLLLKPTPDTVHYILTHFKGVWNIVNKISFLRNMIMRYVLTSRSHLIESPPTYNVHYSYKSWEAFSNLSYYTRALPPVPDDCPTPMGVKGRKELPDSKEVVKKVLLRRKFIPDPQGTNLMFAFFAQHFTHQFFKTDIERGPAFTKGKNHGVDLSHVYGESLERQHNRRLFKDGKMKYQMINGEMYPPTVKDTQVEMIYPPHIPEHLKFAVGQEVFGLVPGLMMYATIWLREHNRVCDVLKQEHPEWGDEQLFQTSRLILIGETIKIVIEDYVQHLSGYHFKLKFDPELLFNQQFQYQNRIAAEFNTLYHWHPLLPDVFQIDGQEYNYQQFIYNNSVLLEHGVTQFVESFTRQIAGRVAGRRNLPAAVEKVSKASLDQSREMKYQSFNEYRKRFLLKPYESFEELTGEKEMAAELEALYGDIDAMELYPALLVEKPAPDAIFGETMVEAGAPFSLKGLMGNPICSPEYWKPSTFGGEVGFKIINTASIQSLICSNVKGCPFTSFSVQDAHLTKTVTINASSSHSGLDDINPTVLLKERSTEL

Cyclooxygenase-2 (COX-2) [2] = target: T1, Cyclooxygenase-2 (COX-2); test: purified enzyme, product formation and regioisomers by RP-HPLC-MS/MS; type: biochemical

Row | SMILES | purified enzyme turnover, RP-HPLC-MS/MS (Cyclooxygenase-2 (COX-2) [1]) | purified enzyme, product formation and regioisomers by RP-HPLC-MS/MS (Cyclooxygenase-2 (COX-2) [2])
1 | CC/C=C\C/C=C\C/C=C\C/C=C\C/C=C\CCCCCC(=O)O [DPA, (7Z,10Z,13Z,16Z,19Z)-docosapentaenoic acid] | purified ovine COX-2 generated the EFOX-D5 precursor, hydroxy-DPA (OH-DPA), from DPA | –
2 | CC(=O)Oc1ccccc1C(=O)O [ASA] | – | ASA increased the rate and extent of formation of OH-DPA (Fig. 3c) and shifted the distribution of hydroxy regioisomers
